Experiments:
[1] = target: D816V KIT (Homo sapiens (Human), UniProt P10721, D816V); experiment: KIT D816V assay at Km (Caliper electrophoretic mobility shift); conditions: biochemical, 15 uM ATP (Km), 90 minutes at 25 C; read-out: INH KIT D816V
[2] = target: PDGFRA D842V (Homo sapiens (Human), UniProt P16234, D842V); experiment: PDGFRA D842V assay at Km (Caliper electrophoretic mobility shift); conditions: biochemical, 15 uM ATP (Km), 90 minutes at 25 C; read-out: INH PDFGRA D842V
[3] = target: KIT D816V kinase activity (KIT autophosphorylation at tyrosine 719) in HMC1.2 cells (Homo sapiens (Human), UniProt P10721, D816V/V560G); experiment: HMC1.2 autophosphorylation assay (phospho-Y719 c-KIT AlphaLISA); format: cell-based; conditions: HMC1.2 mast cell leukemia cell line (KIT V560G, D816V), 90 minutes compound; read-out: INH-KIT-PHOS-HMC1.2
KIT D816V kinase activity (KIT autophosphorylation at tyrosine 719) in HMC1.2 cells, sequence (P10721 26-976 V560G/D816V): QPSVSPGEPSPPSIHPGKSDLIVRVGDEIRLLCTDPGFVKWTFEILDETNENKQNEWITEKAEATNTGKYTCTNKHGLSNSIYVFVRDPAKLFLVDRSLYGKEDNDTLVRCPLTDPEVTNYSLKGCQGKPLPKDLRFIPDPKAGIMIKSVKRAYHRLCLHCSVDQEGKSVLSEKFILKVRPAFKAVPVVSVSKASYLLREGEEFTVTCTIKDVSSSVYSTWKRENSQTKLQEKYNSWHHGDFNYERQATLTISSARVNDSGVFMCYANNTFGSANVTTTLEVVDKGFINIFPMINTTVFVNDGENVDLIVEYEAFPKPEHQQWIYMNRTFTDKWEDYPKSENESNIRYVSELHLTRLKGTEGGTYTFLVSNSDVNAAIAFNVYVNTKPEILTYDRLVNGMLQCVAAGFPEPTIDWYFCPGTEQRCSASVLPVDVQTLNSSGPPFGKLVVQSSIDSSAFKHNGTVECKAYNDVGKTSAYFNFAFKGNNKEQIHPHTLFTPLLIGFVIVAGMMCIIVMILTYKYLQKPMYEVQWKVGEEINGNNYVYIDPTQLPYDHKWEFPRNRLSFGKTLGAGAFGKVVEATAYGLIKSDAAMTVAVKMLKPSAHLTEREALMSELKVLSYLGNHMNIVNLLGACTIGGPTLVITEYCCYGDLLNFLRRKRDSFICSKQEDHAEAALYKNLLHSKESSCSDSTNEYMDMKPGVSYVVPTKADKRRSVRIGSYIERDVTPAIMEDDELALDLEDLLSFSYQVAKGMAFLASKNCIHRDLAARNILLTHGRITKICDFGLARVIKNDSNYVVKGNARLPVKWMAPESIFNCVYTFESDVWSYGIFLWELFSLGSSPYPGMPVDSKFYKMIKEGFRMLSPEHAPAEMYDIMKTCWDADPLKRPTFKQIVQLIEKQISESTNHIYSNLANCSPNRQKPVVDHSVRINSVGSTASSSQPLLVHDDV

D816V KIT, sequence (P10721 26-976 D816V): as the sequence (P10721 26-976 V560G/D816V) above, with G535V counted along it
PDGFRA D842V, sequence (P16234 24-1089 D842V): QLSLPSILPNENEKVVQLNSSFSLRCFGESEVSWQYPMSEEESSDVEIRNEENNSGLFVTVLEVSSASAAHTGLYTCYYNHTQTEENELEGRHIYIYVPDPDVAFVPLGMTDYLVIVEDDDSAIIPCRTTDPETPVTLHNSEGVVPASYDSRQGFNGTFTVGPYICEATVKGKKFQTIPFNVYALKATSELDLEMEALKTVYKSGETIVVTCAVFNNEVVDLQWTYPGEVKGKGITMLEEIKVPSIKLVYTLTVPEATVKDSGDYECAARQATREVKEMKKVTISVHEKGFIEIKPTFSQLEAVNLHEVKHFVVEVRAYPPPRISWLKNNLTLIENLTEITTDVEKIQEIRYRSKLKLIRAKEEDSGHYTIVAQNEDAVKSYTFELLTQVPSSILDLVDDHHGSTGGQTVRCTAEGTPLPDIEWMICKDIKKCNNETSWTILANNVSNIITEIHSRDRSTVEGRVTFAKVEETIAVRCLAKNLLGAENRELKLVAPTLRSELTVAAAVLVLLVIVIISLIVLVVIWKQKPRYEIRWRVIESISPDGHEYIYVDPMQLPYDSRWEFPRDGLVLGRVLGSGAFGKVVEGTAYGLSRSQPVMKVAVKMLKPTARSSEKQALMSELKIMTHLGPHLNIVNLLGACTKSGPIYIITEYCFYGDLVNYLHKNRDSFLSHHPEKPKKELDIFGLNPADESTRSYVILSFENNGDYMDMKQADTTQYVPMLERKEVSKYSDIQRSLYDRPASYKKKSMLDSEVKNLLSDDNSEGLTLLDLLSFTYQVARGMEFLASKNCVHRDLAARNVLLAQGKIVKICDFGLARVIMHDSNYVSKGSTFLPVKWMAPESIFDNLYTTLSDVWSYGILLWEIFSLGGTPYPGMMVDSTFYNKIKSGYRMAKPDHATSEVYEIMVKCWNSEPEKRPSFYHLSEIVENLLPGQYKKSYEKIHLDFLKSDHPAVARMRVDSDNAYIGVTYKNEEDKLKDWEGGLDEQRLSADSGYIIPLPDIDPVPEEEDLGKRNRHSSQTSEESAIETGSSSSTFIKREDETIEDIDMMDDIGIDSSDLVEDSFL

Row | IC50 [1] [µM] | IC50 [2] [µM] | IC50 [3] [µM] | Compound
1 | < 0.001 | < 0.001 | – | C[C@@](O)(c1cnc(N2CCN(c3ncnn4cc(-c5cn[nH]c5)cc34)CC2)nc1)c1ccc(F)cc1F [Compound 58]
2 | 0.00101 to 0.01 | – | 0.1 to 1 | CC[C@H](c1ccc(F)cc1)c1cnc(N2CCN(c3ncnn4cc(-c5cnn(C)c5)cc34)CC2)nc1 (single isomer, unassigned) [Compound 40]
3 | 0.00101 to 0.01 | – | < 0.05 | CC(C)(C)OC(=O)N1CC=C(c2cc3c(N4CCN(c5ncc([C@@](C)(O)c6ccc(F)cc6)cn5)CC4)ncnn3c2)CC1 [Compound 124]
4 | < 0.001 | – | 0.05 to 0.1 | Cn1cc(-c2cc3c(N4CCN(c5ncc([C@](C)(O)c6c(F)cccc6F)cn5)CC4)ncnn3c2)cn1 [Compound 91]
5 | 0.00101 to 0.01 | – | 0.05 to 0.1 | C[C@H](c1ccc(F)cc1)c1cnc(N2CCN(c3ncnn4cc(-c5cnn(C)c5)cc34)C[C@H]2CO)nc1 [Compound 74]
6 | 0.00101 to 0.01 | – | 0.1 to 1 | CC[C@](O)(c1ccc(F)cc1)c1cnc(N2CCN(c3ncnn4cc(-c5cnn(C)c5)cc34)CC2)nc1 [Compound 69]
7 | 0.00101 to 0.01 | – | < 0.05 | Cn1cc(-c2cc3c(N4CCN(c5ncc(C(C)(C)c6c(F)cc(F)cc6F)cn5)CC4)ncnn3c2)cn1 [Compound 106]
8 | 0.00101 to 0.01 | – | 0.1 to 1 | Cc1cc(-c2cc3c(N4CCN(c5ncc([C@@](C)(O)c6ccc(F)cc6)cn5)CC4)ncnn3c2)no1 (single isomer, unassigned) [Compound 52]
9 | > 0.1 | – | 1 to 10 | Cn1cc(-c2cn3ncnc(N4CCN(c5ncc([C@](C)(O)c6ccc(F)cc6)cn5)CC4)c3c2F)cn1 [Compound 89]
10 | 0.00101 to 0.01 | – | 0.1 to 1 | Cn1cc(-c2cc3c(N4CCN(c5ncc([C@@](C)(O)c6ccc(F)cn6)cn5)CC4)ncnn3c2)cn1 [Compound 54]
11 | 0.00101 to 0.01 | – | < 0.05 | Cn1cc(-c2cc3c(N4CCN(c5ncc([C@@](C)(O)c6c(F)cccc6F)cn5)CC4)ncnn3c2)cn1 [Compound 92]
12 | 0.00101 to 0.01 | – | < 0.05 | C[C@@H](c1ccc(F)cc1)c1cnc(N2CCN(c3ncnn4cc(-c5cnn(C)c5)cc34)C[C@H]2CO)nc1 [Compound 73]
13 | > 0.1 | – | 1 to 10 | Cn1cc(-c2cn3ncnc(N4CCN(c5ncc([C@@](C)(O)c6ccc(F)cc6)cn5)CC4)c3c2Cl)cn1 [Compound 108]
14 | 0.01 to 0.1 | – | 0.1 to 1 | Cc1ccc(-c2cc3c(N4CCN(c5ncc([C@@](C)(O)c6ccc(F)cc6)cn5)CC4)ncnn3c2)s1 [Compound 82]
15 | < 0.001 | – | 0.05 to 0.1 | Cn1cc(-c2cc3c(N4CCN(c5ncc([C@@](O)(CF)c6ccc(F)cc6)cn5)CC4)ncnn3c2)cn1 [Compound 95]
16 | < 0.001 | – | < 0.05 | Cn1cc(-c2cc3c(N4CCN(c5ncc([C@@](C)(O)c6ccccc6)cn5)CC4)ncnn3c2)cn1 [Compound 25]
17 | 0.00101 to 0.01 | – | 0.1 to 1 | Cn1cc(-c2cc3c(N4CCN(c5ccc(C(O)c6ccccc6)cn5)CC4)ncnn3c2)cn1 (stereo not shown) [Compound 11]
18 | 0.00101 to 0.01 | – | 0.05 to 0.1 | Cc1nn(C)cc1-c1cc2c(N3CCN(c4ncc([C@](C)(O)c5ccc(F)cc5)cn4)CC3)ncnn2c1 (single isomer, unassigned) [Compound 71]
19 | > 0.1 | – | > 10 | COc1cc(OC)cc(-c2cc3c(N4CCN(c5ccccc5)CC4)ncnn3c2)c1 [Compound 4]

Row | IC50 [1] [µM] | IC50 [2] [µM] | IC50 [3] [µM] | Compound
20 | 0.01 to 0.1 | – | 1 to 10 | Cn1cc(-c2cc3ncnc(N4CCN(c5ncc(C(C)(C)c6ccc(F)cc6)cn5)CC4)n3n2)cn1 [Compound 42]
21 | 0.00101 to 0.01 | – | 0.1 to 1 | Cn1cc(-c2cc3c(N4CCN(c5ncc([C@@](O)(c6ccc(F)cc6)C6CC6)cn5)CC4)ncnn3c2)cn1 [Compound 104]
22 | 0.01 to 0.1 | – | 0.1 to 1 | Cn1cc(-c2cc3c(N4CCN(c5ncc([C@](C)(O)c6ccc(F)cc6Cl)cn5)CC4)ncnn3c2)cn1 [Compound 109]
23 | 0.00101 to 0.01 | – | 0.1 to 1 | Cn1cc(-c2cc3c(N4CCN(c5ncc([C@](C)(O)c6ccccc6)cn5)CC4)ncnn3c2)cn1 [Compound 24]
24 | 0.00101 to 0.01 | – | < 0.05 | Cn1cc(-c2cc3c(N4CCN(c5ncc([C@](C)(O)c6ccccc6F)cn5)CC4)ncnn3c2)cn1 [Compound 48]
25 | < 0.001 | – | < 0.05 | Cn1cc(-c2cc3c(N4CCN(c5ncc([C@@](C)(O)c6ccc(Cl)cc6)cn5)CC4)ncnn3c2)cn1 [Compound 83]
26 | 0.01 to 0.1 | – | 0.1 to 1 | C[C@@](O)(c1ccc(F)cc1)c1cnc(N2CCN(c3ncnn4cc(-c5ccc(F)cc5)cc34)CC2)nc1 [Compound 64]
27 | < 0.001 | – | < 0.05 | Cn1cc(-c2cc3c(N4CCN(c5ncc([C@@](C)(N)c6ccc(F)cc6F)cn5)CC4)ncnn3c2)cn1 [Compound 85]
28 | 0.00101 to 0.01 | – | < 0.05 | Cn1cc(-c2cc3c(N4CCN(c5ncc([C@H](N)c6ccc(F)cc6)cn5)CC4)ncnn3c2)cn1 [Compound 28]
29 | < 0.001 | – | < 0.05 | Cn1cc(-c2cc3c(N4CCN(c5ncc([C@@H](CO)c6ccc(F)cc6)cn5)CC4)ncnn3c2)cn1 [Compound 49]
30 | 0.00101 to 0.01 | – | 0.1 to 1 | C[C@](O)(c1ccc(F)cc1)c1cnc(N2CCN(c3ncnn4cc(-c5cccc(F)c5)cc34)CC2)nc1 [Compound 66]
31 | 0.01 to 0.1 | – | 0.1 to 1 | C=C(c1ccc(F)cc1)c1cnc(N2CCN(c3ncnn4cc(-c5cnn(C)c5)cc34)CC2)nc1 [Compound 23]
32 | 0.00101 to 0.01 | – | 0.1 to 1 | NC(=O)c1ccc(-c2cc3c(N4CCN(c5ncc(Cc6ccccc6)cn5)CC4)ncnn3c2)cc1 [Compound 33]
33 | > 0.1 | – | > 10 | CN(C)C(=O)c1ccc(-c2cc3c(N4CCN(c5ccccc5)CC4)ncnn3c2)cc1 [Compound 6]
34 | < 0.001 | – | < 0.05 | Cn1cc(-c2cc3c(N4CCN(c5ncc(Sc6ccccc6F)c(N)n5)CC4)ncnn3c2)cn1 [Compound 56]
35 | 0.01 to 0.1 | – | 1 to 10 | Cn1cc(-c2cc3c(N4CCN(c5ncc(S(=O)(=O)c6ccc(F)cc6)cn5)CC4)ncnn3c2)cn1 [Compound 99]
36 | 0.00101 to 0.01 | – | < 0.05 | CC[C@@](O)(c1ccc(F)cc1)c1cnc(N2CCN(c3ncnn4cc(-c5cnn(C)c5)cc34)CC2)nc1 [Compound 70]
37 | > 0.1 | – | 1 to 10 | Cn1cc(-c2cn3ncnc(N4CCN(c5ncc([C@@](C)(O)c6ccc(F)cc6)cn5)CC4)c3c2F)cn1 [Compound 90]
38 | < 0.001 | – | < 0.05 | Cc1nn(C)cc1-c1cc2c(N3CCN(c4ncc([C@@](C)(O)c5ccc(F)cc5)cn4)CC3)ncnn2c1 (single isomer, unassigned) [Compound 72]

Row | IC50 [1] [µM] | IC50 [2] [µM] | IC50 [3] [µM] | Compound
39 | 0.00101 to 0.01 | – | < 0.05 | Cn1cc(-c2cc3c(N4CCN(c5ncc([C@H](O)c6ccc(F)cc6)cn5)CC4)ncnn3c2)cn1 [Compound 32]
40 | 0.01 to 0.1 | – | 1 to 10 | CN(C)[C@H](c1ccccc1)c1cnc(N2CCN(c3ncnn4cc(-c5cnn(C)c5)cc34)CC2)nc1 [Compound 37]
41 | < 0.001 | – | < 0.05 | Cn1cc(-c2cc3c(N4CCN(c5ncc([C@@](C)(N)c6c(F)cc(F)cc6F)cn5)CC4)ncnn3c2)cn1 [Compound 114]
42 | 0.01 to 0.1 | – | 1 to 10 | Cc1ccc(-c2cc3c(N4CCN(c5ncc([C@](C)(O)c6ccc(F)cc6)cn5)CC4)ncnn3c2)s1 [Compound 81]
43 | 0.01 to 0.1 | – | 1 to 10 | Cn1cc(-c2cc3c(N4CCN(c5ncc([C@](C)(O)c6ccc(F)cn6)cn5)CC4)ncnn3c2)cn1 [Compound 53]
44 | 0.00101 to 0.01 | – | 0.1 to 1 | Cc1c(-c2cc3c(N4CCN(c5ncc(Cc6ccccc6)cn5)[C@H](C)C4)ncnn3c2)cnn1C [Compound 19]
45 | < 0.001 | – | < 0.05 | Cn1cc(-c2cc3c(N4CCN(c5ncc([C@@](C)(O)c6ccccc6F)cn5)CC4)ncnn3c2)cn1 [Compound 47]
46 | 0.00101 to 0.01 | – | 0.1 to 1 | Cn1cc(-c2cc3c(N4CCN(c5ncc([C@](O)(c6ccc(F)cc6)C(F)F)cn5)CC4)ncnn3c2)cn1 [Compound 118]
47 | 0.01 to 0.1 | – | 0.1 to 1 | C[C@@H]1CN(c2ncnn3cc(-c4cnn(C)c4)cc23)CCN1c1ncc(Sc2ccccc2F)cn1 [Compound 55]
48 | < 0.001 | – | < 0.05 | Cc1ncc(-c2cc3c(N4CCN(c5ncc([C@@](C)(O)c6ccc(F)cc6)cn5)CC4)ncnn3c2)s1 [Compound 88]
49 | 0.01 to 0.1 | – | 1 to 10 | COc1ccc(-c2cc3c(N4CCN(c5ccccc5)CC4)ncnn3c2)cc1OC [Compound 5]
50 | 0.01 to 0.1 | – | 0.1 to 1 | CO[C@@](C)(c1ccc(F)cc1)c1cnc(N2CCN(c3ncnn4cc(-c5cnn(C)c5)cc34)CC2)nc1 [Compound 67]
51 | 0.00101 to 0.01 | – | < 0.05 | Cn1cc(-c2cc3c(N4CCN(c5ncc([C@H](CO)c6ccc(F)cc6)cn5)CC4)ncnn3c2)cn1 [Compound 50]
52 | < 0.001 | – | < 0.05 | CCn1cc(-c2cc3c(N4CCN(c5ncc([C@@](C)(N)c6ccc(F)cc6)cn5)CC4)ncnn3c2)cn1 [Compound 63]
53 | 0.00101 to 0.01 | – | 0.1 to 1 | Cn1cc(-c2cc3c(N4CCN(c5ncc([C@](O)(c6ccc(F)cc6)C6CC6)cn5)CC4)ncnn3c2)cn1 [Compound 103]
54 | 0.00101 to 0.01 | – | 0.1 to 1 | N#Cc1ccc(-c2cc3c(N4CCN(c5ncc(Cc6ccccc6)cn5)CC4)ncnn3c2)cc1 [Compound 16]
55 | 0.00101 to 0.01 | – | < 0.05 | Cc1ccc(-c2cc3c(N4CCN(c5ncc([C@@](C)(O)c6ccc(F)cc6)cn5)CC4)ncnn3c2)cn1 [Compound 60]
56 | 0.00101 to 0.01 | – | 0.1 to 1 | Cn1cc(-c2cc3c(N4CCN(c5ncc([C@](N)(c6ccc(F)cc6)C(F)F)cn5)CC4)ncnn3c2)cn1 [Compound 112]

Reference: patent US10807985B2 (Blueprint Medicines Corporation, priority 2013, dated 2020)
